The assay concerns the target T1, interaction of ICAM-1 with the Leukointegrin CD18/CD11a (LFA-1) (Homo sapiens, UniProt P05107+P20701).
T1 construct: endogenous in cells; sICAM-1: made in house, secreted from transfected CHO DUX cells
Briefly: Assay to determine inhibition of LFA-1 binding to ICAM-1 (immunopurified LFA-1 on plate-bound sICAM-1, ELISA readout). On the technique in general: In an ELISA, binding on a coated surface is turned into a signal by an enzyme label.

Setting [1] is: values marked e approximated from incomplete dose-response curve.

The Kd is the concentration at which binding is half-saturated. A low value points to tighter binding.

Each structure is given as a SMILES string. Where two headings read alike, the source gives them in different places.

T1 sequence (P20701 26-1170): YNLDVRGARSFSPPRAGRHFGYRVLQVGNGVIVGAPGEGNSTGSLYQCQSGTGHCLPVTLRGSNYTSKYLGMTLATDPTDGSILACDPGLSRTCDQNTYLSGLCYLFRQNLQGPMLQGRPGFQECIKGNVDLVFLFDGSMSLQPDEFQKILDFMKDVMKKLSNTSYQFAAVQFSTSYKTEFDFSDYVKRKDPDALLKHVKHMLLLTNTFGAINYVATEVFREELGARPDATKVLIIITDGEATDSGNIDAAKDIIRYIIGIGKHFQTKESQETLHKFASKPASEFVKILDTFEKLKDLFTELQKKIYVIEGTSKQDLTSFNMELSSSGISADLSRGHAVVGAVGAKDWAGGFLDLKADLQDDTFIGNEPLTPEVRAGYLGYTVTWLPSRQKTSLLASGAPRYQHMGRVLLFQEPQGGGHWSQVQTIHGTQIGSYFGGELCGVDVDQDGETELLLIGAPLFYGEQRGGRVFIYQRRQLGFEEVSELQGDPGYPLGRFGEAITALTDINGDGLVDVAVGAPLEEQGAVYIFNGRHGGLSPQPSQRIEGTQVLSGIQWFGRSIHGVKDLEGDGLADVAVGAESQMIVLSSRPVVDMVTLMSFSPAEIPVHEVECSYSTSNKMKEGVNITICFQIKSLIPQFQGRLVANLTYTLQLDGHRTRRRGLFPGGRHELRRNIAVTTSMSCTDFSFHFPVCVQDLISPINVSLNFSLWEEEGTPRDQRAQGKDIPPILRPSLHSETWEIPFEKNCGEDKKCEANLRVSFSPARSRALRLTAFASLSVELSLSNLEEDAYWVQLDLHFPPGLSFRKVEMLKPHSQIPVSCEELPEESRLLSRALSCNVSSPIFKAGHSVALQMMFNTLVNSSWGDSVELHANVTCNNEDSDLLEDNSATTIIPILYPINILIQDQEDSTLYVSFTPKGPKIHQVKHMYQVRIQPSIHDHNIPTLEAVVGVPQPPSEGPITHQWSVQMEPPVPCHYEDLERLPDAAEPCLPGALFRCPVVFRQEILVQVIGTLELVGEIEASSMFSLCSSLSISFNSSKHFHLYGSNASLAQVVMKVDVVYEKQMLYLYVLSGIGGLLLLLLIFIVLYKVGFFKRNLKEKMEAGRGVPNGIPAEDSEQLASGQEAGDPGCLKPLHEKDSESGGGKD
T1 sequence (P05107 23-769): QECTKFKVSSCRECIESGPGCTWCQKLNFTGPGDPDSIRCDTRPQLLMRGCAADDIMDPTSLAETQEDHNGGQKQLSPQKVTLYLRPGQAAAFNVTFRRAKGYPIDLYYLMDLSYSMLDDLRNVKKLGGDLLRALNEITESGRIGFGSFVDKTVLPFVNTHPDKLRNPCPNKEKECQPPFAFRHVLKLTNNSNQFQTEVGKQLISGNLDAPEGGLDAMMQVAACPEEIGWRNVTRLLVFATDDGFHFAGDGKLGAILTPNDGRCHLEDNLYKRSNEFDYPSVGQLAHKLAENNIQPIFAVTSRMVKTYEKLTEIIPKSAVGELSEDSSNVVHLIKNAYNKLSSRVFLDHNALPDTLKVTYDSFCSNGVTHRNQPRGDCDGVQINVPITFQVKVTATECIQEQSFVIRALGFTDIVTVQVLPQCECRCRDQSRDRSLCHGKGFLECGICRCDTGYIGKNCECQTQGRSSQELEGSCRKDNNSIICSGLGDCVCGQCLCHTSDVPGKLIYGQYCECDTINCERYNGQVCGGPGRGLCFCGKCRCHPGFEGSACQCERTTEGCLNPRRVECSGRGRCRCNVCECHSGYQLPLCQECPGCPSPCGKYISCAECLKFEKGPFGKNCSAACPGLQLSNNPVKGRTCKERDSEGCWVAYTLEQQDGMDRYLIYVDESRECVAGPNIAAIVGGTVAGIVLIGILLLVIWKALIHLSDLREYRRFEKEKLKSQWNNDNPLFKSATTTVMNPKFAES

As to `CC1(Cc2ccc(-c3ccsc3)cc2)NC(=O)N(c2cc(Cl)cc(Cl)c2)C1=O` (stereo not shown) [Example 196], under setting [1], binding was characterised by a dissociation constant (Kd) of 90 nM.
Molecule `COc1cccc(CN2C(=O)N(c3cc(Cl)cc(Cl)c3)C(=O)[C@@]2(C)Cc2ccc(Br)cc2)n1` [Example 112] registered a Kd under setting [1] of 390 nM.
On to `CC1(Cc2ccc(-c3ccc(Cl)s3)cc2)NC(=O)N(c2cc(Cl)cc(Cl)c2)C1=O` (stereo not shown) [Example 199], for which binding under setting [1] was characterised by a dissociation constant (Kd) of 270 nM.
With `COc1ccccc1-c1ccc(CC2(C)NC(=O)N(c3cc(Cl)cc(Cl)c3)C2=O)cc1` (stereo not shown) [Example 194], the Kd under setting [1] came out at 270 nM.
`CC1(Cc2ccc(C(C)(C)C)cc2)NC(=O)N(c2cc(Cl)cc(Cl)c2)C1=O` (stereo not shown) [Example 52] gave a Kd under setting [1] of 1590 nM.
On the same count and under the same terms, for `O=C1NC(C(c2ccccc2)c2ccccc2)C(=O)N1c1cc(Cl)cc(Cl)c1` (stereo not shown) [Example 13] the value was 1960 nM; for `C[C@]1(Cc2ccc(-c3ccc(C(=O)O)cc3)cc2)NC(=O)N(c2cc(Cl)cc(Cl)c2)C1=O` [Example 183], 940 nM.
`CC1(Cc2ccc(-c3cccc([N+](=O)[O-])c3)cc2)NC(=O)N(c2cc(Cl)cc(Cl)c2)C1=O` (stereo not shown) [Example 204] came in with a Kd under setting [1] of 500 nM.
In turn, `O=C1NC(Cc2ccccc2)C(=O)N1c1cc(Cl)c(Cl)c(Cl)c1` (stereo not shown) [Example 70] returned a dissociation constant Kd under setting [1] of 1890 nM.
The molecule `CC1(Cc2ccc(OC(F)(F)F)cc2)NC(=O)N(c2cc(Cl)cc(Cl)c2)C1=O` (stereo not shown) [Example 57] came in with a Kd under setting [1] of 360 nM.
Molecule `Cc1cccc(CC2(C)C(=O)N(c3cc(Cl)cc(Cl)c3)C(=O)N2C)c1` (stereo not shown) [Example 143] yielded a Kd under setting [1] of 1200 nM.
Same read-out and setting: the value for `CN1C(=O)N(c2cc(Cl)cc(Cl)c2)C(=O)C1(C)Cc1ccc2c(c1)OCO2` (stereo not shown) [Example 160] was 640 nM.
Regarding `C[C@]1(Cc2ccc(Br)cc2)CC(=O)N(c2cc(Cl)cc(Cl)c2)C1=O` [Example 277], the dissociation constant Kd was determined as 70 nM.
Take `O=C1NC(CCc2ccc(I)cc2)C(=O)N1c1cc(Cl)cc(Cl)c1` (stereo not shown) [Example 217]: the Kd was 1780 nM. Compared with the last molecule, the Kd is about 25-fold higher.
Still for that read-out and setting: the value for `C[C@@]1(Cc2ccc(Br)cc2)C(=O)N(c2cc(Cl)cc(Cl)c2)C(=O)N1C(=O)[C@@H]1CCCN1` [Example 234] was 410 nM.
`O=C1NC(Cc2ccc(Br)cc2)C(=O)N1c1cc(Cl)cc(Cl)c1` (stereo not shown) [Example 19] gave a Kd under setting [1] of 760 nM. In other words, the sub-micromolar range.
With `CC1(Cc2ccc(-c3cccc(Br)c3)cc2)NC(=O)N(c2cc(Cl)cc(Cl)c2)C1=O` (stereo not shown) [Example 206], the Kd under setting [1] turned out to be 730 nM. The Kd values of the last two molecules are within 1.5-fold of each other.
Molecule `CN1C(=O)N(c2cc(Cl)cc(Cl)c2)C(=O)C1(C)Cc1c(F)c(F)c(F)c(F)c1F` (stereo not shown) [Example 167] showed a Kd under setting [1] of 600 nM. This Kd and that of the molecule before are within 1.5-fold of each other.
Under setting [1], `CC1(Cc2ccc(-c3ccccc3Cl)cc2)NC(=O)N(c2cc(Cl)cc(Cl)c2)C1=O` (stereo not shown) [Example 191] registered a Kd of 140 nM.
Under setting [1], `CN1C(=O)N(c2cc(Cl)cc(Cl)c2)C(=O)C1(C)Cc1ccccc1C#N` (stereo not shown) [Example 152] returned a Kd of 2660 nM.
In turn, `CCOc1ccc(-c2ccc(CC3(C)NC(=O)N(c4cc(Cl)cc(Cl)c4)C3=O)cc2)cc1` (stereo not shown) [Example 207] returned a Kd under setting [1] of 1280 nM. This Kd lies about 2.1-fold lower than the previous one.
Take `CC1(Cc2cccc(O)c2)NC(=O)N(c2cc(Cl)cc(Cl)c2)C1=O` (stereo not shown) [Example 11]: binding under setting [1] was characterised by a dissociation constant (Kd) of 6300 nM.
`C[C@H](O)CN1C(=O)N(c2cc(Cl)cc(Cl)c2)C(=O)[C@@]1(C)Cc1ccc(Br)cc1` [Example 116] returned a Kd under setting [1] of 190 nM. Against the preceding molecule, the Kd is about 33-fold lower.
Consider `C[C@@]1(Cc2ccc(Br)cc2)C(=O)N(c2cc(Cl)cc(Cl)c2)C(=O)N1Cc1ccccc1C(=O)O` [Example 239], for which the Kd worked out at 280 nM.
The same measure, in the same setting: for `CC1(Cc2ccccc2)C(=O)N(c2cc(Cl)cc(Cl)c2)C(=O)N1CCCCC(=O)O` (stereo not shown) [Example 219] the value was 1030 nM.
On to `C[C@@]1(Cc2ccc(Br)cc2)C(=O)N(c2cc(Cl)cc(Cl)c2)C(=O)N1Cc1ccc(C#N)cc1` [Example 115], for which, under setting [1], binding was put at a Kd of 240 nM.
Turning to `C[C@@]1(Cc2ccc(Br)cc2)C(=O)N(c2cc(Cl)cc(Cl)c2)C(=O)N1Cc1cccc(C#N)c1` [Example 104], the Kd under setting [1] is 270 nM.
Regarding `CC(C)C1(Cc2ccccc2)NC(=O)N(c2cc(Cl)cc(Cl)c2)C1=O` (stereo not shown) [Example 32], binding under setting [1] was put at a Kd of 12100 nM.
For `CN1C(=O)N(c2cc(Cl)cc(Cl)c2)C(=O)C1(C)Cc1cccc(C#N)c1` (stereo not shown) [Example 153], under setting [1], the Kd came to 2190 nM.
Take `CN(C)C(=O)c1ccc(CC2(C)C(=O)N(c3cc(Cl)cc(Cl)c3)C(=O)N2C)cc1` (stereo not shown) [Example 258]: the Kd stood at 1660 nM.
Consider `CCCCOc1cc(CC2(C)NC(=O)N(c3cc(Cl)cc(Cl)c3)C2=O)nc(C(F)(F)F)c1` (stereo not shown) [Example 63], for which the Kd under setting [1] was around 3000 nM.
Molecule `CCN1C(=O)N(c2cc(Cl)cc(Cl)c2)C(=O)[C@]1(C)Cc1ccc(Br)cc1` [Example 275] showed a Kd of 2000 nM. That is a single-digit micromolar value.
For the molecule `COC(=O)c1ccc(CC2(C)NC(=O)N(c3cc(Cl)cc(Cl)c3)C2=O)cc1` (stereo not shown) [Example 46], the affinity under setting [1], expressed as Kd, was 2260 nM.
In the case of `CN(C)C(=O)CN1C(=O)N(c2cc(Cl)cc(Cl)c2)C(=O)[C@@]1(C)Cc1ccc(Br)cc1` [Example 107], the Kd under setting [1] stood at 490 nM.
`CC1(Cc2ccccc2)C(=O)N(c2cc(Cl)cc(Cl)c2)C(=O)N1CCO` (stereo not shown) [Example 218] displayed a Kd of 800 nM.
As to `CN1C(=O)N(c2cc(Cl)cc(Cl)c2)C(=O)C1(C)Cc1cccc(F)c1` (stereo not shown) [Example 147], under setting [1], binding was put at a Kd of 340 nM. This counts as sub-micromolar.
Molecule `CC(N)(Cc1c[nH]c2ccccc12)C(=O)O` (stereo not shown) [Example 25] returned a Kd under setting [1] of 3080 nM.
As for `C[C@H]1C(=O)N(c2cc(Cl)cc(Cl)c2)C(=O)[C@]1(C)Cc1ccccc1` [Example 74], the dissociation constant Kd under setting [1] turned out to be 670 nM.
Under setting [1], `Cc1ccc(-c2ccc(CC3(C)NC(=O)N(c4cc(Cl)cc(Cl)c4)C3=O)cc2)cc1[N+](=O)[O-]` (stereo not shown) [Example 192] registered a Kd of around 1000 nM.
Under setting [1], `CC1(Cc2ccc(-c3ccc(C(F)(F)F)cc3)cc2)NC(=O)N(c2cc(Cl)cc(Cl)c2)C1=O` (stereo not shown) [Example 208] registered a Kd of 650 nM.
Take `CCCC1(Cc2ccccc2)NC(=O)N(c2cc(Cl)cc(Cl)c2)C1=O` (stereo not shown) [Example 31]: the affinity under setting [1], expressed as Kd, was 1360 nM.
Turning to `COc1ccccc1CN1C(=O)N(c2cc(Cl)cc(Cl)c2)C(=O)[C@@]1(C)Cc1ccc(Br)cc1` [Example 126], the Kd under setting [1] was 810 nM. Compared with the last molecule, the Kd is about 1.7-fold lower.
Molecule `CC(=O)Nc1cccc(-c2ccc(CC3(C)NC(=O)N(c4cc(Cl)cc(Cl)c4)C3=O)cc2)c1` (stereo not shown) [Example 203] displayed a Kd under setting [1] of 340 nM.
The same measure, in the same setting: for `CN1C(=O)N(c2cc(Cl)cc(Cl)c2)C(=O)C1C(O)c1ccccc1` (stereo not shown) [Example 178] the value was 1170 nM.
The molecule `C[C@@]1(Cc2ccc(Br)cc2)C(=O)N(c2cc(Cl)cc(Cl)c2)C(=O)N1C(=O)[C@@H](N)CO` [Example 233] had a Kd of 1790 nM. In other words, the single-digit micromolar range.
For `CN1C(=O)N(c2cc(Cl)cc(Cl)c2)C(=O)C1(C)Cc1ccc(C(=O)N2CCCCC2)cc1` (stereo not shown) [Example 259], binding was put at a Kd of 3540 nM.
Under setting [1], `CCOc1cccc(-c2ccc(CC3(C)NC(=O)N(c4cc(Cl)cc(Cl)c4)C3=O)cc2)c1` (stereo not shown) [Example 198] came in with a Kd of 140 nM. That is a sub-micromolar value.
`CC1(Cc2ccc(C(F)(F)F)cc2)NC(=O)N(c2cc(Cl)cc(Cl)c2)C1=O` (stereo not shown) [Example 51] gave a Kd under setting [1] of 430 nM.
`CC1(Cc2cc(F)cc(F)c2)NC(=O)N(c2cc(Cl)cc(Cl)c2)C1=O` (stereo not shown) [Example 58] yielded an equilibrium dissociation constant (Kd) under setting [1] of 2850 nM.
Molecule `C[C@]1(Cc2ccc(Br)cc2)NC(=O)N(c2cccc(Cl)c2)C1=O` [Example 36] yielded a Kd under setting [1] of 4050 nM.
In the case of `Cc1ccc(CC2(C)C(=O)N(c3cc(Cl)cc(Cl)c3)C(=O)N2C)cc1` (stereo not shown) [Example 170], binding under setting [1] was characterised by a dissociation constant (Kd) of 20 nM.
Under setting [1], `CN1C(=O)N(c2cc(Cl)cc(Cl)c2)C(=O)C1(C)Cc1ccccc1` (stereo not shown) [Example 158] came in with an equilibrium dissociation constant (Kd) of 690 nM.

These data come from patent publication USRE38132E1, “Phenylpyrrolidines, phenylimidazolidines,3-phenyl-1,3-oxizolidines and 3-phenyl-1,3-thiazolidines and their use in the treatment of inflammatory disease” (Boehringer Ingelheim Pharmaceuticals, Inc., priority 1997, dated 2003).
